Data: patent US6849645B2, “Method of increased bioavailability of nutrients and pharmaceutical preparations with tetrahydropiperine and its analogues and derivatives” (priority 2000, dated 2005)
“Also recorded” adds a separate entry of the source.

Legend:
[1] = Franz diffusion cell, in vitro transdermal permeation of Forskolin with or without tetrahydropiperine; type: in vitro ADME, rat; conditions: for Increase in release (% of Forskolin): with THP vs control
Protocol: In vitro permeation studies of Forskholin, a diterpenoid compound which has various therapeutic effects (Bronchodilation—used in Asthma, prevents platelet aggregation, anti hypertensive, anti glaucoma and anti-inflammatory) was carried out. Fabricated Franz diffusion cells of capacity 67 and 69 ml were used for the study. Freshly excised rat abdominal skin was used for the permeation studies.
Solutions Used in the Study • a) 2.5% Forskolin in methanol. • b) 0.05% Tetrahydropiperine in 2.5% Forskolin in methanol. • c) 0.1% Tetrahydropiperine in 2.5% Forskolin in methanol. Procedure
Freshly excised rat abdominal […] was mounted on the Franz diffusion Cell, the outer layer of the skin facing the donor compartment. The receptor fluid was maintained at 35° C. using a thermostatic magnetic stirrer.
The study was conducted by replacing the medium in the receptor compartment with methanol instead of phosphate buffer. In both the receptor and donor compartment methanol was used as the medium in the permeation studies.
(§1) In the donor compartment 2 ml methanol containing 50 mg of Forskolin and tetrahydropiperine (5% of Forskolin conc.) was taken. Receptor compartment consisted of 69 ml of methanol maintained at 35° C. Permeation study was carried out for a period of 1 hr. Samples were withdrawn at 15, 30 and 60 minutes intervals and the amount of Forskholin present was analyzed by HPLC.
as §1, with “Forskholin” for “Forskolin and tetrahydropiperine (5% of Forskolin conc.)”, “65” for “69”, “hour.” for “hr.”

[2] = test system: tobacco cut worm, Spodoptera litura F.; test: whole plant or invertebrate; conditions: 48 hours
Protocol: The tetrahydropiperine was tested against tobacco cut worm, Spodoptera litura F. to determine its possible increased kill rate when used with Fenvalerate—a synthetic pyrethroid.
• a. Preparation of test solution—0.5 g of the test product was dissolved in 1 ml of Ethanol and made up to 100 ml in standard volumetric flask using suitable emulsifier. This solution contains 5000 ppm a.i. (0.5 percent). Further, serial dilution was made to get 0.25, 0.125 and 0.0625% of the test product. To each of these test solutions, Fenvalerate was added to get 250 ppm of Fenvalerate a.i. in the final volume. For comparison 0.5 percent of Tetrahydropiperine, Ethanol 1.0 percent solution and 250 ppm a.i. of Fenvalerate was used. • b. Bioassay—Laboratory reared 7 day old larvae of tobacco cut worm, Spodoptera litura were used in the experiment. After a series of preliminary tests the concentrations chosen for the experiment were 0.5, 0.25, 0.125 and 0.0625 percent tetrahydropiperine. Fresh castor leaves were dipped for 30 seconds in above concentrations of test and standard compounds and blank solutions. After proper drying, the treated leaves were transferred to plastic containers. To each container 5 larvae were released. This was repeated four times so as to have 20 larvae for each concentration. Larvae in control set were fed with leaves dipped in water. Observations were recorded for larval mortality after 48 hours of exposure. Results

[3] = test system: Earthworms; test: Albendazole induced anthelmintic activity on earthworms (paralysis and death); type: in vivo, earthworm
Protocol: An experiment to see how tetrahydropiperine enhances the skin permeability of anthelmintic drugs such as albendazole on intestinal worms was conducted. However, as a preliminary study towards this, tests on earthworms were conducted.
Earthworms were obtained from the Al Ameen College of Pharmacy, Bangalore. Albendazole (Zentel) was obtained from Smith Kline Beecham Pharmaceuticals, Bangalore. The aqueous test solution contained tetrahydropiperine (Tetraperine™, A proprietary product of Sabinsa Corporation, USA) of 0.1% and 0.2% w/v suspended in 0.25% w/v sodium carboxy methyl cellulose.
1. Effect of Albendazole: Earth worms of similar length and weight were divided into three groups of six worms each. […] The time of onset of paralysis was noted and the death of the worms were observed and recorded as above.

[4] = 48 hour skin patch test for irritation in humans; type: in vivo, human
Protocol: In another aspect of the present invention, a study was conducted to determine whether a topical composition containing THP (98% purity), at a level of 0.01% and 0.1% by weight, which is preferred topical dose range for the compound, would produce symptoms of topical irritation. A skin patch test using THP in a petrolatum vehicle was conducted on 50 healthy volunteers for 48 hr with reading of the results after 48 hr and 72 hr. […] The irritation score was reported by the supervising physician, a practicing dermatologist, as 0. […] Based on previous experience with the parent compound, THP should not irritate the stomach mucosa at dose level of up to 50 mg per os in an adult healthy volunteer.
The 48 hour Repeat Insult Patch Test was used to evaluate skin irritation potential of the test compound.
50 Male or female subjects aged between 18 and 87 years participated in the study. 5 male and 41 female subjects completed the study. The subjects were in good health and using no medications from 30 days prior to the commencement of the study.
The test material was applied occlusively, 0.1% w/w diluted in petrolatum. 0.2 g or 0.2 cc of the test material was dispensed into the skin of the upper back. Paper tape such as 3M Micropore™ or Kendall Tenderskin™ was used for fixation after preparation of the surrounding skin with an adhesion enhancer such as Mastitol™. The subject was instructed to avoid exposure to water or to direct sunlight during the 48 hour observation period. The tape was removed at the test facility at the end of the exposure period and evaluated by trained personnel under the supervision of the principal investigator.
Reactions were scored based on the appearance of erythema or edema immediately following removal of the patch and again at 24 hours following removal. Subjects were instructed to report any delayed reactions occurring after the final reading.

[5] = Solubility (specification of THP); type: physicochemical
[6] = Albendazole 0.2% + THP 0.1% vs Albendazole 0.2%
[7] = Albendazole 0.2% + THP 0.1% w/v
[8] = Albendazole 0.2% + THP 0.2% vs Albendazole 0.2%
[9] = Albendazole 0.2% + THP 0.2% w/v
[10] = THP 0.01% and 0.1% by weight in petrolatum, 48 hr patch, read after 48 hr and 72 hr

Which “permeation of Forskolin” value ([1]; Tetrahydropiperine 5% of Forskolin concentration) does the source give for `O=C(CCCCc1ccc2c(c1)OCO2)N1CCCCC1` [Tetrahydropiperine, 1-[5-(1,3-Benzodioxol-5 yl)-1-oxo-pentanoyl]-Piperidine] here?
Its value is “enhanced”.

And the “permeation of Forskolin” value ([1]; tetrahydropiperine 2% of Forskolin concentration)?
The value was “enhanced permeation was not observed”.

What about the “Increase in release (% of Forskolin)” value ([1]; 15 min) of the same molecule?
Its value is 28.12%.

What about the “Increase in release (% of Forskolin)” value ([1]; 30 min) of the same molecule?
Its value is 39.25%.

What about the “Increase in release (% of Forskolin)” value ([1]; 60 min) of the same molecule?
The value was 5.09%.

And the “PERCENT MORTALITY (Mean of 4 replications)” value (from here on “PERCENT MORTALITY”) ([2]; Tetrahydropiperine 0.0625% + 250 ppm a.i. Fenvalerate)?
Its value is 50%.

And the “PERCENT MORTALITY” value ([2]; Tetrahydropiperine 0.0625% + 250 ppm a.i. Fenvalerate, listed as tetrahydropiperine)?
The value was “did not enhance the activity”.

And the “PERCENT MORTALITY” value ([2]; Tetrahydropiperine 0.125% + 250 ppm a.i. Fenvalerate)?
Its value is 65%.

And the “PERCENT MORTALITY” value ([2]; Tetrahydropiperine 0.5% + 250 ppm a.i. Fenvalerate)?
The value was 100%.

And the “PERCENT MORTALITY” value ([2]; Tetrahydropiperine 0.5% alone)?
Its value is 0%.

What about the “PERCENT MORTALITY” value ([2]; Tetrahydropiperine 0.5% alone, listed as tetrahydropiperine) of the same molecule?
The value was “did not show any activity”.

What about the “PERCENT MORTALITY” value ([2]; Tetrahydropiperine […] + 250 ppm a.i. Fenvalerate) of the same molecule?
Its value is 85%.

And the “% Reduction in time for Death” value [3, 6]?
The value was 11.03%.

What about the “% Reduction in time for Paralysis” value [3, 6] of the same molecule?
Its value is 12.81%.

What about the “Time taken in minutes (Mean ± SEM), Death” value [3, 7] of the same molecule?
Its value is 98.16 ± 5.19 min.

What about the “Time taken in minutes (Mean ± SEM), Paralysis” value [3, 7] of the same molecule?
The value was 86.31 ± 4.3 min.

What about the “% Reduction in time for Death” value [3, 8] of the same molecule?
The value was 32.32%.

What about the “% Reduction in time for Paralysis” value [3, 8] of the same molecule?
The value was 37.36%.

What about the “Time taken in minutes (Mean ± SEM), Death” value [3, 9] of the same molecule?
The value was 74.64 ± 2.98 min.

What about the “Time taken in minutes (Mean ± SEM), Paralysis” value [3, 9] of the same molecule?
Its value is 62.01 ± 3.33 min.

What about the “change in time taken for paralysis and death” value ([3]; Albendazole 0.2% co-administered with tetrahydropiperine 0.2%) of the same molecule?
The value was “showed a reduction”.

And the “% Reduction in time for Death” value ([3]; THP 0.1% alone)?
The value was “Nil”.

What about the “% Reduction in time for Paralysis” value ([3]; THP 0.1% alone) of the same molecule?
The value was “Nil”.

What about the “change in time of paralysis and death compared with standard concentration” value ([3]; Tetrahydropiperine 0.1% with albendazole 0.2%, unpaired t test) of the same molecule?
The value was “no change”.

And the “skin reaction (erythema, edema, primary contact irritation)” value ([4]; 0.1% w/w in petrolatum, occlusive, 48 hours exposure)?
The value was “No erythema or edema reactions; also recorded: appears not to produce primary (contact) irritation”.

What about the irritation score [4, 10] of the same molecule?
The irritation score was 0.

And the skin irritation [4, 10]?
The skin irritation was “Neither dose caused skin irritation”.

And the Solubility ([5]; chloroform)?
Its Solubility is “Soluble”.

And the Solubility ([5]; methanol)?
Its Solubility is “Soluble”.

What about the Solubility ([5]; water) of the same molecule?
The Solubility was “insoluble”.
